Earlier results as cited in patent US9206171B2, “6-{2 -[1-(6-methyl-3-pyridazinyl)-4-piperidinyl]ethoxy}-3-ethoxy-1,2-benzisoxazole bis-dihydrogenphosphate salt (1:2)” (Biota Scientific Management Pty Ltd, priority 2008, dated 2015).

What was measured:
[1] = patients using oral contraceptive formulations
[2] = facile endogenous cleavage of the ester moiety, regardless of excipient

Compound | interaction with oral contraceptive formulations [1] | aqueous solubility (in words) | bioavailability (in words) [2]
Cc1cc(CCCOc2c(C)cc(-c3noc(C(F)(F)F)n3)cc2C)on1 [Pleconaril] | interact adversely | – | –
CCOC(=O)c1ccc(OCCC2CCN(c3ccc(C)nn3)CC2)cc1 [Pirodavir, 4-[2-[1-(6-methyl-3-pyridazinyl)-4-piperidinyl]-ethoxy]benzoate] | – | poor aqueous solubility | poor bioavailability
